Results published in article PMC10709440, “High-throughput ligand profile characterization in novel cell lines expressing seven heterologous insect olfactory receptors for the detection of volatile plant biomarkers” (Scientific Reports, 2023).
Read-outs that look alike come from different tables or passages of the source.

Key:
[1] = target: T1, Drosophila OR13a (Drosophila melanogaster, UniProt Q9VXL0); assay: Calcium ion fluorescence (GCaMP6) assay, OR13a stable HEK293 cell line; assay type: cell-based; settings: for DF norm AVERAGE OR13a: threshold 0.05, below shown as 0
T1 construct: expressed in transfected cells
T1 sequence (Q9VXL0 1-418): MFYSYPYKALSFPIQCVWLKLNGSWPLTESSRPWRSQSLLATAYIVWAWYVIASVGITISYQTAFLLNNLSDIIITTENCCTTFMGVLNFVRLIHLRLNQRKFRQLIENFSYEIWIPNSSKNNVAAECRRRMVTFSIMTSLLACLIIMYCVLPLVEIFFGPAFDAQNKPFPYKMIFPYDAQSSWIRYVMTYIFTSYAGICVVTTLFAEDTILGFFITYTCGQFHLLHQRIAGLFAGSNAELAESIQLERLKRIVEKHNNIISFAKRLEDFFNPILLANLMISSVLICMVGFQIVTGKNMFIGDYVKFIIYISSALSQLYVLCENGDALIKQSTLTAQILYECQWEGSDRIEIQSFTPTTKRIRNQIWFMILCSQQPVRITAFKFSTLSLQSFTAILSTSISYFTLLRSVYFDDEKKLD
T1 sequence (Q9VNB5 1-486 partner): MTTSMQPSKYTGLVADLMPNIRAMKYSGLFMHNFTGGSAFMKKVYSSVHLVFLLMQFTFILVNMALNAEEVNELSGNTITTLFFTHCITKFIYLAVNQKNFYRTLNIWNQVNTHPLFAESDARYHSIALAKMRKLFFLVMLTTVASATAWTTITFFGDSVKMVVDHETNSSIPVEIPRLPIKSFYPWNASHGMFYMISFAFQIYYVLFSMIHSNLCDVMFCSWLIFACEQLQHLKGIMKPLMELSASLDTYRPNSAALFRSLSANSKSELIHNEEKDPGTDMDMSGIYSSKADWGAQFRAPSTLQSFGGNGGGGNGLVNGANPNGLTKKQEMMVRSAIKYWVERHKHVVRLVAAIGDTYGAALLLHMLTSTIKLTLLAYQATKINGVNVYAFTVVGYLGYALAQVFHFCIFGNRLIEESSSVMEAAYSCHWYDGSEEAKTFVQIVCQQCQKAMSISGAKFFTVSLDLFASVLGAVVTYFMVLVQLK
How it was run: (§1)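 Responses are VUAA1-normalized ΔF: each VOC-evoked calcium signal, (FMAX−F0)/F0 over 30 s after injection, divided by the same line's mean 50 µM VUAA1 response. Cells were doxycycline-induced HEK293 with GCaMP6 and the cognate Drosophila OR, in HEPES buffer pH 7.3; ligands tested 0.01–100 μM.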

[2] = target: T2, Drosophila OR98a (Drosophila melanogaster, UniProt Q9VAZ3); assay: Calcium ion fluorescence (GCaMP6) assay, OR98a stable HEK293 cell line; assay type: cell-based; settings: for DF norm AVERAGE OR98a: threshold 0.05, below shown as 0; for Average response: OR98a cell line, average of biological replicates, fraction of VUAA1 response; for OR98a Average response (VUAA1-normalized): 50 μM VUAA1 = 1
T2 construct: expressed in transfected cells
T2 sequence (Q9VAZ3 1-397): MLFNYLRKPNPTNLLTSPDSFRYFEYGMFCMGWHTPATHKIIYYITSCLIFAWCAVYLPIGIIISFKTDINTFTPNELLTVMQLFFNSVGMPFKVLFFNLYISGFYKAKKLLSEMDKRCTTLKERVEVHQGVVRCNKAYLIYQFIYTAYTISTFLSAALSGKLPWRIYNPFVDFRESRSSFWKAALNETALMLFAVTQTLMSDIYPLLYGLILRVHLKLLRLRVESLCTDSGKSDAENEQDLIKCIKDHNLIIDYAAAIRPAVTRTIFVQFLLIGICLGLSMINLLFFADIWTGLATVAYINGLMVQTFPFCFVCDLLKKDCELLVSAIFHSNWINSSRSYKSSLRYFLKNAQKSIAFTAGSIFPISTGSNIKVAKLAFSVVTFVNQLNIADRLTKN
T2 sequence (Q9VNB5 1-486 partner): T1 sequence (Q9VNB5 1-486 partner)
How it was run: as §1

[3] = HEK293, read-out: OR13a Average response (VUAA1-normalized), 1 μM VOC, 50 μM VUAA1 = 1, responses not exceeding 0.05 considered 0
[4] = HEK293, read-out: OR13a Average response (VUAA1-normalized), 10 μM VOC, 50 μM VUAA1 = 1, responses not exceeding 0.05 considered 0
[5] = HEK293, read-out: OR13a Average response (VUAA1-normalized), 100 μM VOC, 50 μM VUAA1 = 1, responses not exceeding 0.05 considered 0
[6] = HEK293, read-out: OR13a response (VUAA1-normalized response), VOC concentration 1 μM
[7] = HEK293, read-out: OR13a response (VUAA1-normalized response), VOC concentration 10 μM
[8] = HEK293, read-out: OR13a response (VUAA1-normalized response), VOC concentration 100 μM
[9] = ligand concentration 1 (unit not given)
[10] = ligand concentration 10 (unit not given)
[11] = ligand concentration 100 (unit not given)
[12] = HEK293, read-out: Average response
[13] = HEK293, read-out: OR98a response (VUAA1-normalized response)
[14] = 1 μM VOC, 50 μM VUAA1 = 1, responses not exceeding 0.05 considered 0
[15] = 10 μM VOC, 50 μM VUAA1 = 1, responses not exceeding 0.05 considered 0
[16] = 100 μM VOC, 50 μM VUAA1 = 1, responses not exceeding 0.05 considered 0

Row | Structure (SMILES) | activation at 1 µM [1, 3] [%] | activation at 10 µM [1, 4] [%] | activation at 100 µM [1, 5] [%] | activation at 1 µM [1, 6] [%] | activation at 10 µM [1, 7] [%] | activation at 100 µM [1, 8] [%] | DF norm AVERAGE OR13a [1, 9] | DF norm AVERAGE OR13a [1, 10] | DF norm AVERAGE OR13a [1, 11] | activation at 1 µM [2, 12] [%] | activation at 10 µM [2, 12] [%] | activation at 100 µM [2, 12] [%] | activation at 1 µM [2, 13] [%] | activation at 10 µM [2, 13] [%] | activation at 100 µM [2, 13] [%] | DF norm AVERAGE OR98a [2, 9] | DF norm AVERAGE OR98a [2, 10] | DF norm AVERAGE OR98a [2, 11] | OR13a Average response (VUAA1-normalized) [1, 14] | OR13a Average response (VUAA1-normalized) [1, 15] | other results
1 | CCCCOC(C)=O [butyl acetate] | 0 | 0 | 1.56 | 0 | 0 | 0 | 0 | 0 | 0 | 3.31 | 0 | 4.29 | 0 | 0 | 0 | 0 | 0 | 0 |  |  | 
2 | CCCCCCCCCC=O [decanal] | 0 | 0 | 0 | 0 | 0 | 0 | 0 | 0 | 0 | 3 | 0 | 0 | 0 | 0 | 0 | 0 | 0 | 0 |  |  | 
3 | CC/C=C/CCO [e3-hexenol] |  |  |  |  |  |  | 0 | 0 | 0.07115 |  |  |  |  |  |  | 0 | 0 | 0 | 0.00 | 0.00 | OR13a Average response (VUAA1-normalized) [1, 16]: 0.07; Average response ([2]; cc. 1 µM): 0.00; Average response ([2]; cc. 10 µM): 0.00; Average response ([2]; cc. 100 µM): 0.00
4 | CC(C)=CCC/C(C)=C/CC/C(C)=C/CO [e,e-farnesol] |  |  |  |  |  |  | 0 | 0 | 0 |  |  |  |  |  |  | 0 | 0.07127 | 0.09839 | 0.00 | 0.033 | OR13a Average response (VUAA1-normalized) [1, 16]: 0.026; OR13a response (VUAA1-normalized response) ([1]; VOC concentration 1 μM): 0.00; OR13a response (VUAA1-normalized response) ([1]; VOC concentration 10 μM): 0.00; OR13a response (VUAA1-normalized response) ([1]; VOC concentration 100 μM): 0.00; OR98a Average response (VUAA1-normalized) ([2]; 1 μM VOC): 0.02; OR98a Average response (VUAA1-normalized) ([2]; 10 μM VOC): 0.07; OR98a Average response (VUAA1-normalized) ([2]; 100 μM VOC): 0.10; OR98a response (VUAA1-normalized response) ([2]; VOC concentration 1 μM): 0.00; OR98a response (VUAA1-normalized response) ([2]; VOC concentration 10 μM): 0.07; OR98a response (VUAA1-normalized response) ([2]; VOC concentration 100 μM): 0.10; Average response ([2]; cc. 1 µM): 0.017; Average response ([2]; cc. 10 µM): 0.07; Average response ([2]; cc. 100 µM): 0.10
